# Measured values as given in patent US20160007541A1, “Increasing Harvest (Yield) of Crop Plants Utilizing Thermodynamic Laws on a Whole Plant Basis to Detect Optimal Periods for Exothermic Energy Versus Endothermic Energy Needs” (Stoller Enterprises, Inc., priority 2014, published 2016).
# Tested on: tomato plants
# Assay: Tomato yield, Brix and taste after cobalt via drip irrigation (Table 4)
# Type: in vivo
# Details: base fertility plus cobalt @ 1 pt/acre over 5 weeks
structure (smiles),measurement,setting,value
[Co] [cobalt],Taste test 14 scientific personnel,base 2,2.8
same,% Brix (sugars),base 4.8,5.5%
same,Yield (No. of tons per acre),base 29.6,33.9 tons per acre
same,"Yield (number of tomato fruits per acre × 1,000)",base 244,"288 fruits per acre × 1,000"
